Tests used:
BTK wildtype protein = BTK wildtype protein (Homo sapiens (Human), UniProt Q06187); assay: BTK wildtype HTRF displacement assay; type: binding; conditions: 1-hour incubation; read-out: BTK (wt) IC50
Method in brief: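 Full-length N-terminal GST-tagged BTK incubated 1 h at room temperature with compound (6 doses, four-fold dilutions from 5 μM top) plus kinase tracer 239 and anti-GST-Tb antibody. Tracer displacement read as TR-FRET 665/620 ratio, background-subtracted using no-protein control. IC50 from four-parameter fit constrained 0–100% inhibition.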

BTK C481S protein = BTK C481S protein (Homo sapiens (Human), UniProt Q06187, C481S); assay: BTK C481S HTRF displacement assay; type: binding; conditions: 1-hour incubation
Chain of BTK C481S protein (Q06187 2-659 C481S): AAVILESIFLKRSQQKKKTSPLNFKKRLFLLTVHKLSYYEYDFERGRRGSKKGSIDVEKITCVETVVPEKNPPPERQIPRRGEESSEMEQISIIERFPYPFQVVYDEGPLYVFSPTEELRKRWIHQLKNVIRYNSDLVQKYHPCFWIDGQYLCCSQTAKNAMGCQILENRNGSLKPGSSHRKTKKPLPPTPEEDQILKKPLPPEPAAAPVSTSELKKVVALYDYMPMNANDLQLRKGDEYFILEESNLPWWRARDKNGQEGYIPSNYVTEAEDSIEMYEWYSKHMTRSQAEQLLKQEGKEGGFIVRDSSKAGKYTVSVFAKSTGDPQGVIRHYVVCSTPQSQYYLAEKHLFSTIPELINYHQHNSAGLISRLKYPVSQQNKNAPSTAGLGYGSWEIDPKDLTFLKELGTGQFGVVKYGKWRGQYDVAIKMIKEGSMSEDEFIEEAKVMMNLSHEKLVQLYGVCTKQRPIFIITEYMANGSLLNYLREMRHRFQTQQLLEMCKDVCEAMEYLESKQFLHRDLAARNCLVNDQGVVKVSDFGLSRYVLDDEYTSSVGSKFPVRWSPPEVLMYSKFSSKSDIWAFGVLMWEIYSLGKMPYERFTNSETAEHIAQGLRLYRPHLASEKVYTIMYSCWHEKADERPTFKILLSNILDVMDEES
Method in brief: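 N-terminal GST-tagged BTK C481S (2-659) incubated 1 hour at room temperature with compound (6 doses, four-fold from 5 μM), 50 nM kinase tracer 239 and anti-GST-Tb antibody. TR-FRET 665/620 ratio, background-subtracted; IC50 from constrained four-parameter fit. KI=IC50/(1+[Tracer]/Kd), tracer Kd 54 nM.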

Chain of BTK wildtype protein (Q06187 2-659): as the sequence (Q06187 2-659 C481S) above, with S480C counted along it

Structure (SMILES) | IC50 (BTK wildtype protein) [nM] | IC50 (BTK C481S protein) [nM]
COc1ccc(F)cc1C(=O)NCc1ccc(-c2nn(CC3CN(C(C)=O)CCN3C(=O)n3cncn3)c3ncnc(N)c23)cc1 (stereo not shown) [Compound 313, N-(4-(1-((4-acetyl-1-(1H-1,2,4-triazole-1-carbonyl)piperazin-2-yl)methyl)-4-amino-1H-pyrazolo[3,4-d]pyrimidin-3-yl)benzyl)-5-fluoro-2-methoxybenzamide] | > 1000 | > 1000
COc1ccc(F)cc1C(=O)NCc1ccc(-c2nn(C(C)CN(C(=O)n3cncn3)C3CC3)c3ncnc(N)c23)cc1 (stereo not shown) [Compound 230, N-(2-(4-amino-3-(4-((5-fluoro-2-methoxybenzamido)methyl)phenyl)-1H-pyrazolo[3,4-d]pyrimidin-1-yl)propyl)-N-cyclopropyl-1H-1,2,4-triazole-1-carboxamide] | > 1000 | ≤ 1000
COc1ccc(F)cc1C(=O)NCc1ccc(-c2nn(C(C)CC3CCCCN3C(=O)n3cncn3)c3ncnc(N)c23)cc1 (stereo not shown) [Compound 129, N-(4-(1-(1-(1-(1H-1,2,4-triazole-1-carbonyl)piperidin-2-yl)propan-2-yl)-4-amino-1H-pyrazolo[3,4-d]pyrimidin-3-yl)benzyl)-5-fluoro-2-methoxybenzamide] | > 1000 | > 1000
COc1nn(C)cc1Nc1nc(N2CCCC(N(C)C(=O)n3cncn3)C2)nc2c1ncn2C (stereo not shown) [Compound 300, N-(1-(6-((3-methoxy-1-methyl-1H-pyrazol-4-yl)amino)-9-methyl-9H-purin-2-yl)piperidin-3-yl)-N-methyl-1H-1,2,4-triazole-1-carboxamide] | > 1000 | ≤ 1000
COc1ccc(F)cc1C(=O)NCc1ccc(-c2nn(C(CC3CC3)CN(C)C(=O)n3cncn3)c3ncnc(N)c23)cc1 (stereo not shown) [Compound 127, N-(4-(4-amino-3-(4-((5-fluoro-2-methoxybenzamido)methyl)phenyl)-1H-pyrazolo[3,4-d]pyrimidin-1-yl)-3-cyclopropylpropyl)-N-methyl-1H-1,2,4-triazole-1-carboxamide] | > 1000 | > 1000
COc1ccc(F)cc1C(=O)NCc1ccc(-c2nn(C(CC3CCC3)CN(C)C(=O)n3cncn3)c3ncnc(N)c23)cc1 (stereo not shown) [Compound 139, N-(2-(4-amino-3-(4-((5-fluoro-2-methoxybenzamido)methyl)phenyl)-1H-pyrazolo[3,4-d]pyrimidin-1-yl)-3-cyclobutylpropyl)-N-methyl-1H-1,2,4-triazole-1-carboxamide] | > 1000 | > 1000
COc1nn(C)cc1Nc1nc(N2CCCC3(CCN3C(=O)n3cncn3)C2)nc2c1ncn2C (stereo not shown) [Compound 102, (6-(6-((3-methoxy-1-methyl-1H-pyrazol-4-yl)amino)-9-methyl-9H-purin-2-yl)-1,6-diazaspiro[3.5]nonan-1-yl) (1H-1,2,4-triazol-1-yl)methanone] | > 1000 | > 1000
COCCC(CN(C)C(=O)n1cncn1)n1nc(-c2ccc(CNC(=O)c3cc(F)ccc3OC)cc2)c2c(N)ncnc21 (stereo not shown) [Compound 291, N-(2-(4-amino-3-(4-((5-fluoro-2-methoxybenzamido)methyl)phenyl)-1H-pyrazolo[3,4-d]pyrimidin-1-yl)-4-methoxybutyl)-N-methyl-1H-1,2,4-triazole-1-carboxamide] | > 1000 | > 1000
COc1ccc(F)cc1C(=O)NCc1ccc(-c2nn(C[C@H](C3CC3)N(C)C(=O)n3cncn3)c3ncnc(N)c23)cc1 [Compound 132, (S)-N-(2-(4-amino-3-(4-((5-fluoro-2-methoxybenzamido)methyl)phenyl)-1H-pyrazolo[3,4-d]pyrimidin-1-yl)-1-cyclopropylethyl)-N-methyl-1H-1,2,4-triazole-1-carboxamide] | > 1000 | > 1000
CC1CN(Cc2ccc(C(F)(F)F)cc2N2CCCC2)CCN1C(=O)n1cncn1 (stereo not shown) [Compound 106, (2-methyl-4-(2-(pyrrolidin-1-yl)-4-(trifluoromethyl)benzyl)piperazin-1-yl)(1H-1,2,4-triazol-1-yl)methanone] | > 1000 | > 1000
COc1ccc(F)cc1C(=O)NCc1ccc(-c2nn(CC3CCC(N(C)C(=O)n4cncn4)C3)c3ncnc(N)c23)cc1 (stereo not shown) [Compound 311, N-(3-((4-amino-3-(4-((5-fluoro-2-methoxybenzamido)methyl)phenyl)-1H-pyrazolo[3,4-d]pyrimidin-1-yl)methyl)cyclopentyl)-N-methyl-1H-1,2,4-triazole-1-carboxamide] | ≤ 1000 | ≤ 1000
COc1ccc(F)cc1C(=O)NCc1ccc(-c2nn(CC(N(C)C(=O)n3cncn3)C(F)(F)F)c(N)c2C(N)=O)cc1 (stereo not shown) [Compound 186, N-(3-(5-amino-4-carbamoyl-3-(4-((5-fluoro-2-methoxybenzamido)methyl)phenyl)-1H-pyrazol-1-yl)-1,1,1-trifluoropropan-2-yl)-N-methyl-1H-1,2,4-triazole-1-carboxamide] | ≤ 1000 | ≤ 1000
COc1ccc(F)cc1C(=O)NCc1ccc(-c2nn(C(C)CCN(C)C(=O)n3cncn3)c3ncnc(N)c23)cc1 (stereo not shown) [Compound 303, N-(3-(4-amino-3-(4-((5-fluoro-2-methoxybenzamido)methyl)phenyl)-1H-pyrazolo[3,4-d]pyrimidin-1-yl)butyl)-N-methyl-1H-1,2,4-triazole-1-carboxamide] | ≤ 1000 | ≤ 1000
COc1ccc(F)cc1C(=O)NCc1ccc(-c2nn(C[C@H]3CCCC[C@@H]3CN(C)C(=O)n3cncn3)c3ncnc(N)c23)cc1 [Compound 193, N-(((1S,2S)-2-((4-amino-3-(4-((5-fluoro-2-methoxybenzamido)methyl)phenyl)-1H-pyrazolo [3,4-d]pyrimidin-1-yl)methyl)cyclohexyl)methyl)-N-methyl-1H-1,2,4-triazole-1-carboxamide] | ≤ 1000 | ≤ 1000
CN(C(=O)n1cncn1)C1CCC(C2CCNc3c(C(N)=O)c(-c4ccc(Oc5ccccc5)cc4)nn32)C1 (stereo not shown) [Compound 183, 7-(3-(N-methyl-1H-1,2,4-triazole-1-carboxamido)cyclopentyl)-2-(4-phenoxyphenyl)-4,5,6,7-tetrahydropyrazolo[1,5-a] pyrimidine-3-carboxamide] | ≤ 1000 | ≤ 1000

Second part, the molecule after the results:

IC50 (BTK wildtype protein) [nM] | IC50 (BTK C481S protein) [nM] | Structure (SMILES)
≤ 1000 | ≤ 1000 | CN(C(=O)n1cnc(Cl)n1)C1CCCC(n2nc(-c3ccc(Oc4ccccc4)cc3)c3c(N)ncnc32)C1 (stereo not shown) [Compound 239, N-(3-(4-amino-3-(4-phenoxyphenyl)-1H-pyrazolo[3,4-d]pyrimidin-1-yl)cyclohexyl)-3-chloro-N-methyl-1H-1,2,4-triazole-1-carboxamide]
≤ 1000 | ≤ 1000 | COc1ccc(F)cc1C(=O)NCc1ccc(-c2nn(C(C)C3CCN(C(=O)n4cncn4)C3)c3ncnc(N)c23)cc1 (stereo not shown) [Compound 172, N-(4-(1-(1-(1-(1H-1,2,4-triazole-1-carbonyl)pyrrolidin-3-yl)ethyl)-4-amino-1H-pyrazolo[3,4-d]pyrimidin-3-yl)benzyl)-5-fluoro-2-methoxybenzamide]
≤ 1000 | ≤ 1000 | COc1ccc(C)cc1C(=O)NCc1ccc(-c2nn(C3CCCC(N(C)C(=O)n4cncn4)C3)c3ncnc(N)c23)cc1 (stereo not shown) [Compound 215, N-(3-(4-amino-3-(4-((2-methoxy-5-methylbenzamido)methyl)phenyl)-1H-pyrazolo[3,4-d]pyrimidin-1-yl)cyclohexyl)-N-methyl-1H-1,2,4-triazole-1-carboxamide]
≤ 1000 | ≤ 1000 | NC(=O)c1c(-c2ccc(Oc3ccccc3)cc2)nn2c1NCC[C@H]2[C@H]1CCCCN1C(=O)n1cncn1 [Compound 266, (S)-7-((R)-1-(1H-1,2,4-triazole-1-carbonyl)piperidin-2-yl)-2-(4-phenoxyphenyl)-4,5,6,7-tetrahydropyrazolo[1,5-a] pyrimidine-3-carboxamide]
≤ 1000 | ≤ 1000 | CCN(C(=O)n1cncn1)C1CCC(n2nc(-c3ccc(Oc4ccccc4)cc3)c3c(N)ncnc32)C1 (stereo not shown) [Compound 179, N-(3-(4-amino-3-(4-phenoxyphenyl)-1H-pyrazolo[3,4-d]pyrimidin-1-yl)cyclopentyl)-N-ethyl-1H-1,2,4-triazole-1-carboxamide]
≤ 1000 | ≤ 1000 | CN(C(=O)n1cncn1)[C@@H]1CCCC[C@H](n2nc(-c3ccc(Oc4ccccc4)cc3)c(C(N)=O)c2N)C1 [Compound 182, N-((1R,3S)-3-(5-amino-4-carbamoyl-3-(4-phenoxyphenyl)-1H-pyrazol-1-yl)cycloheptyl)-N-methyl-1H-1,2,4-triazole-1-carboxamide]
≤ 1000 | ≤ 1000 | COc1ccc(F)cc1C(=O)NCc1ccc(-c2nn(C[C@@H]3CCN3C(=O)n3cncn3)c3ncnc(N)c23)cc1 [Compound 103, (S)-N-(4-(1-((1-(1H-1,2,4-triazole-1-carbonyl)azetidin-2-yl)methyl)-4-amino-1H-pyrazolo[3,4-d]pyrimidin-3-yl)benzyl)-5-fluoro-2-methoxybenzamide]
≤ 1000 | > 1000 | COc1ccc(F)cc1C(=O)NCc1ccc(-c2nn(Cc3ccccc3N(C)C(=O)n3cncn3)c3ncnc(N)c23)cc1 [Compound 141, N-(2-((4-amino-3-(4-((5-fluoro-2-methoxybenzamido)methyl)phenyl)-1H-pyrazolo[3,4-d]pyrimidin-1-yl)methyl)phenyl)-N-methyl-1H-1,2,4-triazole-1-carboxamide]

— patent US20240294531A1, “COVALENT HETEROCYCLES AND USES THEREOF” (Kumquat Biosciences Inc., priority 2022, published 2024)
